Where two headings read alike, the source gives them in different places.
Tests used:
[1] = in vitro; conditions: human, microsomes
[2] = Hepatic metabolic stability (HMS) assay, rat hepatocytes; conditions: rat, cryopreserved hepatocytes
Procedure: 1) 10 mM test compounds were provided.
(§8) 2) 30 mM positive control stock solutions: Dissolved accurate amount of positive control compounds in dimethyl sulfoxide (DMSO).
(§9) 3) 1000× Stock Solution: Diluted 10 mM test compounds and 30 mM positive control compounds to 1 mM and 3 mM with DMSO in 96-well plates.
(§10) 4) 100× Dosing Solution: Diluted 1 mM test compounds and 3 mM positive control compounds to 100 μM and 300 μM dosing solutions with ACN.
(§11) 5) Preparation of 0.5×10^6/mL cells suspension: cryopreserved cells were thawed, isolated and suspended in Incubation Medium, then diluted with pre-warmed Incubation Medium to 0.5×10^6 cells/mL.
(§12) 6) Add 198 μL of pre-warmed cell suspensions in 96-well plates.
(§13) 7) Preparation of Quenching Plate: Transfer 125 μL of stop solution in a set of pre-labeled 96-well plates.
(§14) 8) Spike 2 μL dosing solution to each well of 96-well plates in duplicate.
(§15) 9) For TO Samples, mix to achieve a homogenous suspension for about 1 min, then immediately transfer 25 μL of each sample into well containing 125 μL of ice-cold stop solution followed by mixing.
(§16) 10) Incubate all plates at 37° C. in a 95% humidified incubator at 5% CO2 to start the reactions with constant shaking.
(§17) 11) At 15, 30, 60 and 90 min, mix samples and then transfer 25 μL of each sample at each time point to well containing 125 μL of ice-cold stop solution followed by mixing.
(§18) 12) Medium Control (MC) sample plates (labeled as TO-MC and T90-MC) are prepared in the same way as cell incubation except that medium was used instead of cell suspension.
(§19) 13) At each corresponding time point, stop the reactions by removing the plates from incubator and mixing with 125 μL of ice-cold stop solution.
(§20) 14) Vortex the plates immediately on a plate shaker at 600 rpm for 10 minutes. Then, centrifuge all sample plates at 3220×g for 20 min at 4° C.
(§21) 15) After centrifugation, 80 μL/well of supernatant in the sample plates are transferred to another set of pre-labeled 96-well plates which containing 240 μL of ultra pure water according to the plate map.
(§22) 16) Analytical plates are sealed and store at 4° C. until LC-MS/MS analysis.
(§23) The remaining percents of test articles after incubation were calculated by the follow equations:
(§24) Use the following equation of first order kinetics to calculate T1/2 and CLint:

[3] = Hepatic metabolic stability (HMS) assay, mouse hepatocytes; conditions: mouse, cryopreserved hepatocytes
Procedure: 1) 10 mM test compounds were provided.
as §8, §9, §10, §11, §12, §13, §14, §15, §16, §17, §18, §19, §20, §21, §22, §23, §24

[4] = target: CYP1A2 (Homo sapiens (Human), UniProt P05177); conditions: microsomes
Procedure: (§1) CYP isoforms inhibitory activities of test compounds were measured in human liver microsome.
(§2) Preparation details of these substrates are given in below table. The substrate stock solution was stored in a −20° C. freezer. Prior to use, the substrate stock solution was removed from the freezer and allowed to rise to room temperature. Then the substrate stock solution was mixed on a whirly mixer for 30 seconds.
(§3) HLMs were stored in a −80° C. freezer. Prior to use, the pooled HLM was removed from the freezer and allowed to thaw in a 37° C. water bath and then stored on wet ice.
(§4) The positive control inhibitors and their concentrations used by each isozyme are summarized below.
(§5) All samples were incubated in a 37° C. water bath, with three parallels for each concentration of the test compound and two parallels for each concentration of the positive control inhibitor. 100 μL of microsome working solution was taken and added 2 μL of the test product or positive inhibitor working solution. 2 μL solvents was added to the solvent control, and put in a water bath to pre-incubate for 10 min. After pre-incubation, 98 μL of NADPH regeneration solution was added to all samples to start the reaction. Then the mixture was put back in the water bath and incubated for a certain period of time.
(§6) The reaction was quenched by 200 μL stop solution. […]
(§7) IC50 values were determined using 3- or 4-parameter logistic equation.

[5] = target: CYP2C9 (Homo sapiens (Human), UniProt P11712); assay: CYP isoforms inhibitory assay in human liver microsome, CYP2C9; format: in vitro ADME; conditions: substrate diclofenac
Procedure: as §1, §2, §3, §4, §5, §6, §7

[6] = target: CYP2C19 (Homo sapiens (Human), UniProt P33261); assay: CYP isoforms inhibitory assay in human liver microsome, CYP2C19; format: in vitro ADME; conditions: substrate s-mephenytoin
Procedure: as §1, §2, §3, §4, §5, §6, §7

[7] = target: CYP3A4 (Homo sapiens (Human), UniProt P08684); assay: CYP isoforms inhibitory assay in human liver microsome, CYP3A4
Procedure: as §1, §2, §3, §4, §5, §6, §7

Chain of CYP3A4 (P08684 whole entry, canonical isoform): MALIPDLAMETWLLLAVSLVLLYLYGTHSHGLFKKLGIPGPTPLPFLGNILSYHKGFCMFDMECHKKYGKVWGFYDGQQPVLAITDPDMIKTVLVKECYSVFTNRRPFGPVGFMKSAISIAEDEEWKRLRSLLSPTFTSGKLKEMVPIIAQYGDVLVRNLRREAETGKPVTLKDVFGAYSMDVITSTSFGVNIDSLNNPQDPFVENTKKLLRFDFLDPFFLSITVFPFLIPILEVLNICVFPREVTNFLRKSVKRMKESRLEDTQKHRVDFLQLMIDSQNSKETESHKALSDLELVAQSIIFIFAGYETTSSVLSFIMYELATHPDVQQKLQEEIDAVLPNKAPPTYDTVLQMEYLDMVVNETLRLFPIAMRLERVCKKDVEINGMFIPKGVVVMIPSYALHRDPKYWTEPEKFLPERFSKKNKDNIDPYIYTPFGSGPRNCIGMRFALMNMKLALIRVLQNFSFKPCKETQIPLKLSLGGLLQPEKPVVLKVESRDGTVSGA
Chain of CYP2C9 (P11712 whole entry, canonical isoform): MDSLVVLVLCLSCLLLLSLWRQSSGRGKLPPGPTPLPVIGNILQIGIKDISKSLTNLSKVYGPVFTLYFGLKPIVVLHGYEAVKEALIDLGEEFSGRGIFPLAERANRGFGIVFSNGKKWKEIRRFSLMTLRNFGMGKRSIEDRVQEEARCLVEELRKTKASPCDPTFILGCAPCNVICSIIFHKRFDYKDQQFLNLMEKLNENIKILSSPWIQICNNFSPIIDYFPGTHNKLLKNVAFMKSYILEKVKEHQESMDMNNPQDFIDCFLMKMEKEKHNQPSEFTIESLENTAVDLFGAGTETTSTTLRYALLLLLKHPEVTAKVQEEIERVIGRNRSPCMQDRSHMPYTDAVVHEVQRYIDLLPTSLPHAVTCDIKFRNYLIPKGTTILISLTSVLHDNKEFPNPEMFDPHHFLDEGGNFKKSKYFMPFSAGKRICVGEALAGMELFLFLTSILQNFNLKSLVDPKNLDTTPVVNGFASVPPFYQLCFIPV
Chain of CYP2C19 (P33261 whole entry, canonical isoform): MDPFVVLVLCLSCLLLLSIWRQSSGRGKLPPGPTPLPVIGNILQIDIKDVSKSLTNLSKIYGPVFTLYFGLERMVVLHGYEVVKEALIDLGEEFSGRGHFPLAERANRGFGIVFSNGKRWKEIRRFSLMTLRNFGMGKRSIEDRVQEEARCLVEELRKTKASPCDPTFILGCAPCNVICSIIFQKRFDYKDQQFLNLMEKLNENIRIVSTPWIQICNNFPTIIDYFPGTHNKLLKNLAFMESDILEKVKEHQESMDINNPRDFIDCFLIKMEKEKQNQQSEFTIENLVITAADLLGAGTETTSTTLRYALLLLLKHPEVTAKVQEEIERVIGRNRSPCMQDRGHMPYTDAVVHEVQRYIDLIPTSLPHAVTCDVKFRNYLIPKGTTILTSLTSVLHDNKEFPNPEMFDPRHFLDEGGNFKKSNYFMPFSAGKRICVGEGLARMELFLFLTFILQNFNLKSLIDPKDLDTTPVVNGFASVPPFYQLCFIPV
Chain of CYP1A2 (P05177 whole entry, canonical isoform): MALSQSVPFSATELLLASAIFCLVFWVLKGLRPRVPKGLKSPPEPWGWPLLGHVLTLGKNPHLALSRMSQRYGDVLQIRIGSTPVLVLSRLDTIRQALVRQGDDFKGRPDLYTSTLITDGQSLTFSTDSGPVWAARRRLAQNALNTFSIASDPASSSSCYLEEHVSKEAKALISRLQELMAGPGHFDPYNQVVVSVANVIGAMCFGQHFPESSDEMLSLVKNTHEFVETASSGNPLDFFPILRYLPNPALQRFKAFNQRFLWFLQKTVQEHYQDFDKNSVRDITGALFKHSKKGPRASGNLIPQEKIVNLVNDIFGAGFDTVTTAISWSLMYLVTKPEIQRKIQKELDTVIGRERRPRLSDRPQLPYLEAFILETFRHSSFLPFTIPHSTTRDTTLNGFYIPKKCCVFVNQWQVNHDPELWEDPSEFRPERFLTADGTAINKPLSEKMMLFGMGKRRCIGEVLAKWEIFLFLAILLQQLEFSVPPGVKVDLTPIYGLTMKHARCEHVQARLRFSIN

SMILES: CN(C(=O)c1ccc2nc(N)c3cncn3c2c1)[C@@H]1COc2cc(C(F)(F)F)ccc21 [Compound 12]
- half-life at 1 μM [1]: > 2.42 h
- half-life at 1 μM [2]: 2.26 h
- half-life at 1 μM [3]: 1.86 h

SMILES: CN(C(=O)c1ccc2nc(N)c3cncn3c2c1)C1COc2cc(C(F)(F)F)ccc21 (centres unmarked) [Compound 17]
- IC50 [4]: > 30 µM
- IC50 [5]: > 30 µM
- IC50 [6]: 15.1 µM
- IC50 ([7]; microsomes): 27.3 µM
- IC50 ([7]; read-out: IC50 CYP3A4 (midazolam), human liver microsome, substrate midazolam): > 30 µM
